Measured values published in patent US20210275576A1, “MOLECULAR HYDROGEN-CONTAINING COMPOSITION FOR PREVENTION AND/OR IMPROVEMENT OF GENETIC DISORDER” (MiZ Company Limited, priority 2020, published 2021).

Tested on: patient diagnosed as having Down syndrome
Settings: inhalation 1-3 hours per day for one month, hydrogen concentration 4% to 6%
From the text: A patient diagnosed as having Down syndrome developed mild cognitive impairment and could not go out because of a depressive symptom. Additionally, their skin had wrinkles due to premature aging characteristic to Down syndrome.

SMILES: [HH] [hydrogen, molecular hydrogen]
- ability to go out: could go out
- motivation to learn: got motivated to learn
- skin resilience (premature aging): became resilient
- skin wrinkles (premature aging): became less noticeable
- depressive symptom (200 ml/min (Jobs-α generator)): improved
